Patent publication US11912723B2, “KRAS modulators and uses thereof” (Quanta Therapeutics, Inc., priority 2022, dated 2024)

Experiments:
[1] = target: T1, GST-tagged KRAS G12D (2-169) (Homo sapiens, UniProt P01116, G12D); test: Nucleotide exchange assay (NEA), HTRF of SOS-mediated GTP-DY-647P1 binding; assay type: biochemical; details: 5 nM GST-KRAS G12D, 20 nM SOScat, 150 nM GTP; compound 1 h at RT
T1 construct: GST-tagged KRAS^G12D (2-169, Reaction Biology, MSC-11-539); purchased Reaction Biology MSC-11-539 (KRAS G12D); MSC-11-502 (SOS1cat)
Method in brief: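 After 1 h RT preincubation of compound with KRAS, SOS1cat (20 nM final) and fluorescent GTP analog (150 nM) were added to 5 nM KRAS; HTRF (anti-GST Tb donor) followed at RT for up to 90 min. % inhibition relative to DMSO and no-SOS1 blank, 4-parameter curve fit.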

[2] = target: T2, wtNRAS/RAF1 (Homo sapiens, UniProt P01111); test: Protein-protein interaction (PPI) HTRF assay w.t.NRAS/RAF1; assay type: binding
T2 construct: (1-169); His6-SUMO (N, cleaved yes); made in house; host or cells: E. coli (printed for the KRAS and RAF1 constructs; not explicitly for NRAS)
Method: (§1) Biotinylated KRAS wt and KRAS G12DNV proteins were expressed and purified in conditions similar to those previously reported (Tran, et al., 2021) (Zhang, et al., 2020). Briefly, KRAS (1-169) proteins were expressed in E. coli at 18° C. with an upstream TEV cleavage site (ENLFYQS) followed an Avi tag sequence ([…]). KIRAS expression constructs contained both a His6 and maltose-binding protein (MBP) tags at the N-terminus for Ni-NTA column purification prior to overnight TEV cleavage and MBP column purification. The avi-tagged NRAS expression construct contained both a His6 tag and SUMO cleavage sige at the N-terminus for Ni-NTA column purification followed by His-ULP1 digestion overnight. All avi-tagged RAS proteins were dialyzed into buffer containing ATP, biotin, and BirA followed by purification over a second Ni-NTA column and then run over a size exclusion HiLoad™ 26/600 Superdex™ column in 20 mM HEPES, pH 7.5, 300 mM NaCl, 5 mM MgCl2, and 1 mM TCEP. Fractions containing the protein of interest were pooled, concentrated, and confirmed by intact mass spectrometry. To prepare ‘GTP’ loaded KRAS and NRAS, biotinylated KRAS or NRAS was nucleotide exchanged from GDP-bound protein to GppNHp-bound (Jena Biosciences, NU-401-50) protein in the presence of alkaline phosphatase and excess GppNHp as previously described and the resulting nucleotide content was confirmed by HPLC reverse phase analytical chromatography (Donohue, et al., 2019) (Tran, et al., 2021).
(§2) His-tagged RAF1 (52-131) was similarly expressed in E. coli at 18° C. overnight with an upstream TEV cleavage site. His-tagged RAF1 expression construct contained both a His6 and MBP tags at the N-terminus for Ni-NTA column purification followed by MBP-tagged TEV digestion overnight. RAF1 protein samples were further purified over a MBP column followed by a Ni-NTA column and a second MBP column. The fractions containing the protein of interest were pooled, concentrated, and further purified over a HiLoad™ 16/600 Superdex™ 75 pg size exclusion column into 20 mM HEPES, pH8.0, 200 mM NaCl, 5 mM TCEP.
(§3) When RAS proteins are in the active GTP-bound conformation, they bind the effector protein RAF1 at the N-terminus Ras-binding domain (RBD, residues 52-131) (Tran, et al., 2021). Homogenous time resolved fluorescence (HTRF) was used to monitor the interaction between wt or mutant KRAS and RAF1 or wt NRAS and RAFT. Compounds were assayed in the presence of KRAS G12D/V and RAF1 versus wt KRAS to assess activity against mutant and w.t. KRAS. Similarly, compounds were then assayed in the presence of w.t. NRAS and RAF1 to assess RAS isoform selectivity. In all assay formats, His-tagged RAF1 protein was incubated with the HTRF donor, anti-6His Tb Cryptate gold (Cisbio 61DB10RDF), and biotinylated RAS proteins were incubated with the HTRF acceptor, streptavidin-d2 (CisBio 610SADLA). The intensity of the fluorescence signal emitted is proportional to binding between the two proteins. The donor solution was prepared by mixing 16 nM His-tagged RAF1 in protein dilution buffer with 1:100 anti-6His Tb cryptate in PPI-Terbium detection buffer. 16 nM biotinylated RAS protein was diluted into protein dilution buffer (50 mM Tris-HCl pH 7.5, 150 mM NaCl, 0.1 mM MgCl2, 1 mM TCEP, 0.005% Tween20) and mixed with 1:2000 Streptavidin-d2 diluted in PPI-Terbium detection buffer (CisBio 61DB10RDF). 50× compound in DMSO was mixed with 16 nM KRAS-acceptor solution and incubated for 30 minutes at room temperature. After compound pre-incubation with KRAS, the RAF1 donor solution was added to the KRAS-acceptor solution and incubated for 1 hour at room temperature. The fluorescence signal emitted was monitored at 665 nm and 615 nm using an Envision multimode plate reader. The HTRF ratio (665/615) was calculated and normalized to 0% inhibition in the absence of compound and 100% inhibition in the presence of untagged RAF1 protein. […]

[3] = target: T3, wtKRAS/RAF1 (Homo sapiens, UniProt P01116); test: Protein-protein interaction (PPI) HTRF assay w.t.KRAS/RAF1; assay type: binding
T3 construct: KRAS (1-169) proteins were expressed in E. coli at 18° C; His6-MBP (N, cleaved yes); made in house; host or cells: E. coli
Method: as §1, §2, §3

T1 sequence (P01116 2-169 isoform P01116-2 G12D): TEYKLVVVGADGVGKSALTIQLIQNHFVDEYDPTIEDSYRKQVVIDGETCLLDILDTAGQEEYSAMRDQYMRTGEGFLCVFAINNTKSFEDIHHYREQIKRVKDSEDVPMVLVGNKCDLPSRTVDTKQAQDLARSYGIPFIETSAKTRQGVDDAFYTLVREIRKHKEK
T2 sequence (P01111 1-169): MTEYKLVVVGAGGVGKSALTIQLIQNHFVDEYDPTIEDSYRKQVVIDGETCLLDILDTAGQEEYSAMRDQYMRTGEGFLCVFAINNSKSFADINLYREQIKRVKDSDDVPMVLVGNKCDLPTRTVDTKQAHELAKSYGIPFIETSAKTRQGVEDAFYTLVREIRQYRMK
T3 sequence (P01116 1-169 isoform P01116-2): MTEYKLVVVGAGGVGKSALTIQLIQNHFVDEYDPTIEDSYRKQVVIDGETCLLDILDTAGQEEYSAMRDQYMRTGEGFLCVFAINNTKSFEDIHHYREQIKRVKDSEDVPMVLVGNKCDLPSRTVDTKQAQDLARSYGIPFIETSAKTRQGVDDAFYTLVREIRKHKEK

SMILES | IC50 [1] [µM] | IC50 [2] [µM] | IC50 [3] [µM]
CN(C)C(=O)c1nn2c(c1Cl)CN(c1nc(OC[C@@]34CCCN3C[C@H](F)C4)nc3c1CN(C)[C@@]1(CCc4ccccc41)C3)CCC2 [Compound 53, 3-chloro-5-[(7S)-2-[[(2R,8S)-2-fluoro-1,2,3,5,6,7-hexahydropyrrolizin-8-yl]methoxy]-6-methyl-spiro[5,8-dihydropyrido[4,3-d]pyrimidine-7,1′-indane]-4-yl]-N,N-dimethyl-4,6,7,8-tetrahydropyrazolo[1,5-a][1,4]diazepine-2-carboxamide] | < 0.01 | > 100 | 10 to 100
CN(C)C(=O)c1nn2c(c1Cl)CN(c1nc(OC[C@@]34CCCN3C[C@H](F)C4)nc3c1CN(C)[C@@]1(CCCc4ccccc41)C3)CCC2 [Compound 64, 3-chloro-5-[(7S)-2-[[(2R,8S)-2-fluoro-1,2,3,5,6,7-hexahydropyrrolizin-8-yl]methoxy]-6-methyl-spiro[5,8-dihydropyrido[4,3-d]pyrimidine-7,1′-tetralin]-4-yl]-N,N-dimethyl-4,6,7,8-tetrahydropyrazolo[1,5-a][1,4]diazepine-2-carboxamide] | < 0.01 | > 100 | –
C#Cc1c(C(=O)N(C)C)nn2c1CN(c1nc(OC[C@@]34CCCN3C[C@H](F)C4)nc3c1CN(C)[C@@]1(CCCc4ccccc41)C3)CCC2 [Compound 81, 3-ethynyl-5-[(7S)-2-[[(2R,8S)-2-fluoro-1,2,3,5,6,7-hexahydropyrrolizin-8-yl]methoxy]-6-methyl-spiro[5,8-dihydropyrido[4,3-d]pyrimidine-7,1′-tetralin]-4-yl]-N,N-dimethyl-4,6,7,8-tetrahydropyrazolo[1,5-a][1,4]diazepine-2-carboxamide] | < 0.01 | > 100 | 10 to 100
Cc1nnc(-c2nn3c(c2Cl)CN(c2nc(OC[C@@]45CCCN4C[C@H](F)C5)nc4c2CN(C)[C@@]2(CCCc5ccccc52)C4)CCC3)n1C [Compound 90, (7S)-4-[3-chloro-2-(4,5-dimethyl-1,2,4-triazol-3-yl)-4,6,7,8-tetrahydropyrazolo[1,5-a][1,4]diazepin-5-yl]-2-[[(2R,8S)-2-fluoro-1,2,3,5,6,7-hexahydropyrrolizin-8-yl]methoxy]-6-methyl-spiro[5,8-dihydropyrido[4,3-d]pyrimidine-7,1′-tetralin]] | < 0.01 | > 100 | > 100
CN(C)C(=O)c1nn2c(c1Cl)CN(c1nc(OC[C@@]34CCCN3C[C@H](F)C4)nc3c1CN(C)[C@@]1(CCc4cccc(O)c41)C3)CCC2 [Compound 96, 3-chloro-5-[(7S)-2-[[(2R,8S)-2-fluoro-1,2,3,5,6,7-hexahydropyrrolizin-8-yl]methoxy]-7′-hydroxy-6-methyl-spiro[5,8-dihydropyrido[4,3-d]pyrimidine-7,1′-indane]-4-yl]-N,N-dimethyl-4,6,7,8-tetrahydropyrazolo[1,5-a][1,4]diazepine-2-carboxamide] | < 0.01 | > 100 | > 100
